Measurements as given in PMC9653409, “Generative deep learning enables the discovery of a potent and selective RIPK1 inhibitor” (Nature Communications, 2022).
Where two headings read alike, the source gives them in different places.

Legend:
Assay in all cases: Kinase inhibitory activity profiling of RI-962@10 µM (406 kinases, Eurofins)
Assay type in all cases: biochemical
[1] = target: panel of human kinases (kinase named in endpoint) (Homo sapiens, UniProt O00506); details: 10 µM; read-out: Activity (%), STK25(h)
Outline: (§1)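 Radiometric filter-binding kinase assays: enzyme preincubated 15 min with compound in 8 mM MOPS pH 7.0, 0.2 mM EDTA, 250 μM peptide substrate, 10 mM magnesium acetate, 10 μM [γ-33P]-ATP. Reaction started with Mg/ATP, run 40 min at room temperature, stopped with phosphoric acid; 33P incorporation read by scintillation counting. Other kinases by similar protocols.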

[2] = target: panel of human kinases (kinase named in endpoint) (Homo sapiens, UniProt O60331); details: 10 µM; read-out: Activity (%), PIP5K1g(h)
Outline: as §1

[3] = target: panel of human kinases (kinase named in endpoint) (Homo sapiens, UniProt P07949, V804L); details: 10 µM; read-out: Activity (%), Ret (V804L)(h)
Outline: as §1

[4] = target: panel of human kinases (kinase named in endpoint) (Homo sapiens, UniProt P08069); details: 10 µM
Sequence of panel of human kinases (kinase named in endpoint) (Homo sapiens, UniProt P08069) (P08069 31-1367): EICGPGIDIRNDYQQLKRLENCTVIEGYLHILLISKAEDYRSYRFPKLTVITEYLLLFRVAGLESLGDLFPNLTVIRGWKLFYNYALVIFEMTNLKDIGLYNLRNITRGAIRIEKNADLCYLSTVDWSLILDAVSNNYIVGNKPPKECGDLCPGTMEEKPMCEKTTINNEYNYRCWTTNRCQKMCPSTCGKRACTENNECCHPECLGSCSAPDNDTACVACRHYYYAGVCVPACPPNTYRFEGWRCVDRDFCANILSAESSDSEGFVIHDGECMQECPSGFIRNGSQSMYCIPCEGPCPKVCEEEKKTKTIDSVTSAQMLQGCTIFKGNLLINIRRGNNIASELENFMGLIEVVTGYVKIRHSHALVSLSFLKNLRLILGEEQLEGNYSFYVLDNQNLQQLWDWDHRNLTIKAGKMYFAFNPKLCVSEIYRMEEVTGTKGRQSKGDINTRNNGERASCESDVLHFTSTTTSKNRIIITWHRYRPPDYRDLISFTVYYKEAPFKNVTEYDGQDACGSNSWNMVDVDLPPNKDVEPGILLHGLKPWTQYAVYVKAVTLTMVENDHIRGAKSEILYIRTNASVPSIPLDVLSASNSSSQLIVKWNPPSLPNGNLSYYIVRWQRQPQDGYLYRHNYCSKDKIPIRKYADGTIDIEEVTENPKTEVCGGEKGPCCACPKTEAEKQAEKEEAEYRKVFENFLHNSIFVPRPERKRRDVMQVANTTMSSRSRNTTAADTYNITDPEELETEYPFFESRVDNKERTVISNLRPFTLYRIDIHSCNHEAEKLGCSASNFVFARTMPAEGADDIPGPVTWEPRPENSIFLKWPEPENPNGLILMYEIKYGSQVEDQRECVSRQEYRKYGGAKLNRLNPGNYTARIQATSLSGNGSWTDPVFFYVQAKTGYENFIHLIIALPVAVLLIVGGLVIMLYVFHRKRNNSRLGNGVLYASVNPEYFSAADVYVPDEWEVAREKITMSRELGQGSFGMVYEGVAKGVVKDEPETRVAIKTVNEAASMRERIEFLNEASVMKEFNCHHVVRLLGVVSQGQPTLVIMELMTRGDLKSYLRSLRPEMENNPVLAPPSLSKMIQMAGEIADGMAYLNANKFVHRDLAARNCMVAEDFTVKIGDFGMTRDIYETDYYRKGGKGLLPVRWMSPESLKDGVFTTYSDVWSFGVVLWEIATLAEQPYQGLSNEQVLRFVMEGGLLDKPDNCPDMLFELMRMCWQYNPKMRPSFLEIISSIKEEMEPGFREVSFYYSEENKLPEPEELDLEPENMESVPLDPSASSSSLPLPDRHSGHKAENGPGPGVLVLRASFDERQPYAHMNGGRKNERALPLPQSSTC
Outline: as §1

[5] = target: panel of human kinases (kinase named in endpoint) (Homo sapiens, UniProt P08581, D1228N); details: 10 µM; read-out: Activity (%), Met(D1246N)(h)
Outline: as §1

[6] = target: panel of human kinases (kinase named in endpoint) (Homo sapiens, UniProt P11362, V561M); details: 10 µM; read-out: Activity (%), FGFR1(V561M)(h)
Sequence of panel of human kinases (kinase named in endpoint) (Homo sapiens, UniProt P11362, V561M) (P11362 22-822 V561M): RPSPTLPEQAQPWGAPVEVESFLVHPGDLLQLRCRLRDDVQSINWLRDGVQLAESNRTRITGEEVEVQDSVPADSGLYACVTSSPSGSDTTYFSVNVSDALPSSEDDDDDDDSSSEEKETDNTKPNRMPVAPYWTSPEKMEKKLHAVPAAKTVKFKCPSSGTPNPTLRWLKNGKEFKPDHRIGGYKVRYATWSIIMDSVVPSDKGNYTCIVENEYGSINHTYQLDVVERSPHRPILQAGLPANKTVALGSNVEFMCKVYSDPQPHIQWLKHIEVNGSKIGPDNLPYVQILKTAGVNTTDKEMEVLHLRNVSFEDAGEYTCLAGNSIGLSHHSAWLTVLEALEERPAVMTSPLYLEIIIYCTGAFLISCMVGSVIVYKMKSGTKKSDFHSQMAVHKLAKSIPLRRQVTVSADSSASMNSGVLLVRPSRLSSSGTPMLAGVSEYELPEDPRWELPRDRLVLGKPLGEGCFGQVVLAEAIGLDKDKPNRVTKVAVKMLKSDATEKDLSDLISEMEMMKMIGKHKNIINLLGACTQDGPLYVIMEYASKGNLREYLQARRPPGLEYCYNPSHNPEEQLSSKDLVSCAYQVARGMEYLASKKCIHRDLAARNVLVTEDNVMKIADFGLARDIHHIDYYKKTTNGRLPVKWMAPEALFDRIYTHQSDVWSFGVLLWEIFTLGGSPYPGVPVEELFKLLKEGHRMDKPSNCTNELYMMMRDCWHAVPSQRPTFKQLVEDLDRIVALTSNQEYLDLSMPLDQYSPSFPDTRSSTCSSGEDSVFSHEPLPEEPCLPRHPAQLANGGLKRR
Outline: as §1

[7] = target: panel of human kinases (kinase named in endpoint) (Homo sapiens, UniProt P19784); details: 10 µM; read-out: Activity (%), CK2α2(h)
Outline: as §1

[8] = target: panel of human kinases (kinase named in endpoint) (Homo sapiens, UniProt P31749); details: 10 µM; read-out: Activity (%), PKBα(h)
Outline: as §1

[9] = target: panel of human kinases (kinase named in endpoint) (Homo sapiens, UniProt P37023); details: 10 µM; read-out: Activity (%), ALK1(h)
Sequence of panel of human kinases (kinase named in endpoint) (Homo sapiens, UniProt P37023) (P37023 22-503): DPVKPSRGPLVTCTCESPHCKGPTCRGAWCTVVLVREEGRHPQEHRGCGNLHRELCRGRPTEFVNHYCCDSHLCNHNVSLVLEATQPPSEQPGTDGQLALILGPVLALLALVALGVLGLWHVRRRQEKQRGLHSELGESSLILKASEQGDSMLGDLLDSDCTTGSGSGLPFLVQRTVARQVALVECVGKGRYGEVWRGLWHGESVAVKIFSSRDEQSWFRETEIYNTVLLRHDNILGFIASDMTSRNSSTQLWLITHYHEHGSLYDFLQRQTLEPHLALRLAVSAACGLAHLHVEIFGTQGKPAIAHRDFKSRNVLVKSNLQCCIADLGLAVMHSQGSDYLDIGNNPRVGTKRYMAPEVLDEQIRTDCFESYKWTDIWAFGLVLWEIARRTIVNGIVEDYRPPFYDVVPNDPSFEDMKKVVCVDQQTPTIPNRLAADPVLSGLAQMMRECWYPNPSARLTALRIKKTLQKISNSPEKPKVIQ
Outline: as §1

[10] = target: panel of human kinases (kinase named in endpoint) (Homo sapiens, UniProt P45983); details: 10 µM; read-out: Activity (%), JNK1α1(h)
Outline: as §1

[11] = target: panel of human kinases (kinase named in endpoint) (Homo sapiens, UniProt P46734); details: 10 µM; read-out: Activity (%), MKK3(h)
Sequence of panel of human kinases (kinase named in endpoint) (Homo sapiens, UniProt P46734) (P46734 whole entry): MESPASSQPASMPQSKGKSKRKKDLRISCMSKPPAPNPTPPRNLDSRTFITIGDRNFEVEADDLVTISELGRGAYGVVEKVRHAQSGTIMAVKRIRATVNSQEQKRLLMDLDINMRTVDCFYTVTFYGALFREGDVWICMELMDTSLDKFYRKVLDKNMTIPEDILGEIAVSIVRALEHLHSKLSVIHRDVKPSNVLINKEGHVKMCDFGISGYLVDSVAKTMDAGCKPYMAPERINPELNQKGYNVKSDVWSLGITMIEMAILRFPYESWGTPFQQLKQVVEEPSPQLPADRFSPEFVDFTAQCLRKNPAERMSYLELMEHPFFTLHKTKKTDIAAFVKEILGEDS
Outline: as §1

[12] = target: panel of human kinases (kinase named in endpoint) (Homo sapiens, UniProt P51957); details: 10 µM; read-out: Activity (%), NEK4(h)
Outline: as §1

[13] = target: panel of human kinases (kinase named in endpoint) (Homo sapiens, UniProt P53667); details: 10 µM; read-out: Activity (%), LIMK1(h)
Outline: as §1

[14] = target: panel of human kinases (kinase named in endpoint) (Homo sapiens, UniProt Q00537); details: 10 µM; read-out: Activity (%), CDK17/cyclinY(h)
Outline: as §1

[15] = target: panel of human kinases (kinase named in endpoint) (Homo sapiens, UniProt Q06187); details: 10 µM; read-out: Activity (%), BTK(h)
Outline: as §1

[16] = target: panel of human kinases (kinase named in endpoint) (Homo sapiens, UniProt Q13188); details: 10 µM; read-out: Activity (%), MST2(h)
Outline: as §1

[17] = target: panel of human kinases (kinase named in endpoint) (Homo sapiens, UniProt Q13557); details: 10 µM; read-out: Activity (%), CaMKIIδ(h)
Outline: as §1

[18] = target: panel of human kinases (kinase named in endpoint) (Homo sapiens, UniProt Q13627); details: 10 µM; read-out: Activity (%), DYRK1A(h)
Outline: as §1

[19] = target: panel of human kinases (kinase named in endpoint) (Homo sapiens, UniProt Q16816); details: 10 µM; read-out: Activity (%), PhKγ1(h)
Outline: as §1

[20] = target: panel of human kinases (kinase named in endpoint) (Homo sapiens, UniProt Q5TCY1); details: 10 µM; read-out: Activity (%), TTBK1(h)
Outline: as §1

[21] = target: panel of human kinases (kinase named in endpoint) (Homo sapiens, UniProt Q8IYT8); details: 10 µM; read-out: Activity (%), ULK2(h)
Outline: as §1

[22] = target: panel of human kinases (kinase named in endpoint) (Homo sapiens, UniProt Q96SB4); details: 10 µM; read-out: Activity (%), SRPK1(h)
Outline: as §1

[23] = target: panel of human kinases (kinase named in endpoint) (Homo sapiens, UniProt Q9HC98); details: 10 µM; read-out: Activity (%), NEK6(h)
Sequence of panel of human kinases (kinase named in endpoint) (Homo sapiens, UniProt Q9HC98) (Q9HC98 whole entry): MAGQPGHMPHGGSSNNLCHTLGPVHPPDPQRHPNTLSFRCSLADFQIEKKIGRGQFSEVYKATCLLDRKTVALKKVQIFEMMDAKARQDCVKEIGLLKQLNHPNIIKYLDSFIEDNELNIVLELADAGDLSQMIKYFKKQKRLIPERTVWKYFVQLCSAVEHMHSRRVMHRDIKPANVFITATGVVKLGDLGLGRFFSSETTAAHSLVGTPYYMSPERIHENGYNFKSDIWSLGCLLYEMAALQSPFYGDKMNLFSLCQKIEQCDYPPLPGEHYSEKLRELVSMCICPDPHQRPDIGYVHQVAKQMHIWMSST
Outline: as §1

[24] = target: panel of human kinases (kinase named in endpoint) (Homo sapiens, UniProt Q9P1W9); details: 10 µM; read-out: Activity (%), Pim-2(h)
Sequence of panel of human kinases (kinase named in endpoint) (Homo sapiens, UniProt Q9P1W9) (Q9P1W9 whole entry): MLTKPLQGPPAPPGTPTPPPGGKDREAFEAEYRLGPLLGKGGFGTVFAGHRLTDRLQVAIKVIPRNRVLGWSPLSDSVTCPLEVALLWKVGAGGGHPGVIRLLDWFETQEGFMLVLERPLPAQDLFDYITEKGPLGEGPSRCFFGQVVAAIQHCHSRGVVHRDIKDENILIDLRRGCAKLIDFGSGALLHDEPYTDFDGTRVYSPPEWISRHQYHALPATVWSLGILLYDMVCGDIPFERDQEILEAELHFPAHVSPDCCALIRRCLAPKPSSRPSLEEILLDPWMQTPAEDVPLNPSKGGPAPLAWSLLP
Outline: as §1

[25] = target: panel of human kinases (kinase named in endpoint) (Homo sapiens, UniProt Q9Y2K2); details: 10 µM; read-out: Activity (%), SIK3(h)
Sequence of panel of human kinases (kinase named in endpoint) (Homo sapiens, UniProt Q9Y2K2) (Q9Y2K2 whole entry): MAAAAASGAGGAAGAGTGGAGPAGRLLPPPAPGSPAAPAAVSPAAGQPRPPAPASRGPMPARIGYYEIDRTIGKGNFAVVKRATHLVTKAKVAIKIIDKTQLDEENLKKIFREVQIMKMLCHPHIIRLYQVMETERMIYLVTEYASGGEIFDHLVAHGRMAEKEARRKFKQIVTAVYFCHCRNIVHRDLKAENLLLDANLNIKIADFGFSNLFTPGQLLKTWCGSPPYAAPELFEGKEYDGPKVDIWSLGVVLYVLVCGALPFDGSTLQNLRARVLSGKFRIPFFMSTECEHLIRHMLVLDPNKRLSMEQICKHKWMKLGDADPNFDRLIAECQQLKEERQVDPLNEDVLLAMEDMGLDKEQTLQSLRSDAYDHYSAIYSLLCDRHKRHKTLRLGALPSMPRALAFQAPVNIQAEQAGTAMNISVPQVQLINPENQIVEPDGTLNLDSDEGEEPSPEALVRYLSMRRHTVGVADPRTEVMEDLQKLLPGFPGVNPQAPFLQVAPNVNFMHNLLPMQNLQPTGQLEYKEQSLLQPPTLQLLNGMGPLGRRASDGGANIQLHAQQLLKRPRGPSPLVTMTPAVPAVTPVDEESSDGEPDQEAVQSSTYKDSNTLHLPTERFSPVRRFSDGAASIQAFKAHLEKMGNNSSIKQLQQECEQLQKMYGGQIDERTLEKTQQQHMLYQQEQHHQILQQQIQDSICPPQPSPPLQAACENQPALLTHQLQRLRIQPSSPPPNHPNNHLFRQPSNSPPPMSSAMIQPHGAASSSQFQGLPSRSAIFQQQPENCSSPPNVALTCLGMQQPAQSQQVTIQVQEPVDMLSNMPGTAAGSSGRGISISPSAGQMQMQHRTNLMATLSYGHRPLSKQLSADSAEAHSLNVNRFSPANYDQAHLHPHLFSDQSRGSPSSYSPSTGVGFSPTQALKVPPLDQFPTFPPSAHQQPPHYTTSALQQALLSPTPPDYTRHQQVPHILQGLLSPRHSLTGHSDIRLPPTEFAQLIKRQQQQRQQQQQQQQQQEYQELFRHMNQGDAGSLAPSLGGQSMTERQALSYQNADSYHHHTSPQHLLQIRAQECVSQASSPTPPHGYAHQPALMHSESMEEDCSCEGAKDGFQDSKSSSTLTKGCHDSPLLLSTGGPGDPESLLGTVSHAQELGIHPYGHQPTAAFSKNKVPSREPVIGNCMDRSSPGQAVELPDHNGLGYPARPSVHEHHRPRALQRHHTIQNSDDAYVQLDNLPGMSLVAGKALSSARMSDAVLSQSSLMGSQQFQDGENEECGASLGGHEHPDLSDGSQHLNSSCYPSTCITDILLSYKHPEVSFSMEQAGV
Outline: as §1

SMILES: CC(C)C(=O)Nc1nc2cc(-c3ccc4c(c3)c(C(=O)NC(C)c3ccccc3)cn4C)ccn2n1 (centres unmarked) [RI-962]
- activity at 10 µM [1]: 81%
- activity at 10 µM [2]: 98%
- activity at 10 µM [3]: 103%
- activity at 10 µM ([4]; read-out: Activity (%), IGF-1R(h)): 94%
- activity at 10 µM ([4]; read-out: Activity (%), IGF-1R(h), activated): 92%
- activity at 10 µM [5]: 125%
- activity at 10 µM [6]: 99%
- activity at 10 µM [7]: 85%
- activity at 10 µM [8]: 80%
- activity at 10 µM [9]: 94%
- activity at 10 µM [10]: 99%
- activity at 10 µM [11]: 103%
- activity at 10 µM [12]: 104%
- activity at 10 µM [13]: 97%
- activity at 10 µM [14]: 124%
- activity at 10 µM [15]: 92%
- activity at 10 µM [16]: 64%
- activity at 10 µM [17]: 92%
- activity at 10 µM [18]: 96%
- activity at 10 µM [19]: 98%
- activity at 10 µM [20]: 92%
- activity at 10 µM [21]: 89%
- activity at 10 µM [22]: 102%
- activity at 10 µM [23]: 99%
- activity at 10 µM [24]: 97%
- activity at 10 µM [25]: 100%
